Assay results taken from PMC5794489 (Biochemical pharmacology, 2017).
“Also recorded” adds a separate entry of the source. *1 amine or outer side, *2 acyl side, *3 side chain or, on linkers, in order; H or OH if unused. Where a SMILES comes first, the peptide text is derived from it. [ ]: non-standard residue; d: D form. X1 = O=C([C@H]1CCC[C@@H]1N[*:1])[*:2]; X2 = O=C([C@H]1CNC[C@@H]1N[*:1])[*:2]; Aib = CC(C)(N)C(=O)O

Assays:
human GLP-1R [1] = assay: Stimulus bias, operational model of agonism, Δlog; format: cell-based; settings: bias relative to GLP-1; FlpInCHO; mean ± SEM, three to four experiments
human GLP-1R [2] = target: T1, human GLP-1R (Homo sapiens, UniProt P43220); assay: Intracellular calcium mobilization; format: cell-based; settings: for Emax: read-out: iCa2+ Emax
T1 sequence (P43220 24-463): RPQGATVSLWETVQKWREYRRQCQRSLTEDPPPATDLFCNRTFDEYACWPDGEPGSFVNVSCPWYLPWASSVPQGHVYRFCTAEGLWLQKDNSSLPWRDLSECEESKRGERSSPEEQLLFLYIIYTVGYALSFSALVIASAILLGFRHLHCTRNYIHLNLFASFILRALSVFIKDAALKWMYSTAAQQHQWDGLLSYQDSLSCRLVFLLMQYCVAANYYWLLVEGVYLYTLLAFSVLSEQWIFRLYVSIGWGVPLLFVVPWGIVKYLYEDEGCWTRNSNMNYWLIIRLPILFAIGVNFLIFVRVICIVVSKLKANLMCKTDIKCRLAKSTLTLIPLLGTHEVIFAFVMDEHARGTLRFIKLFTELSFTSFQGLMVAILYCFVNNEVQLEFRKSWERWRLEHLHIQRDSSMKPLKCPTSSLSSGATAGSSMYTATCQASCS

human GLP-1R [3] = target: T1, human GLP-1R; assay: ERK1/2 phosphorylation; format: cell-based; settings: read-out: pERK1/2 Emax
human GLP-1R [4] = target: T1, human GLP-1R; assay: β-Arrestin-1 recruitment BRET assay; settings: for Emax: read-out: β-Arrestin-1 Emax
human GLP-1R [5] = target: T1, human GLP-1R; assay: β-Arrestin-2 recruitment BRET assay; settings: for Emax: read-out: β-Arrestin-2 Emax; for β-arrestin-2 recruitment, result in words: FlpInCHO BRET, native β-arrestin-2
human GLP-1R [6] = target: T1, human GLP-1R; assay: Radioligand competition binding on whole GLP-1R FlpInCHO cells; settings: GLP-1R in FlpIn CHO cells
human GLP-1R [7] = target: T1, human GLP-1R; assay: cAMP accumulation in GLP-1R FlpInCHO cells; format: cell-based; settings: Flp-In-CHO, read-out: cAMP Emax
human GLP-1R [8] = settings: FlpIn CHO cells; cited from earlier work

Compound	Δlog(τ/KA) Ca2+ vs cAMP (human GLP-1R [1])	Δlog(τ/KA) pERK1/2 vs cAMP (human GLP-1R [1])	Δlog(τ/KA) βArr1 vs pERK1/2 (human GLP-1R [1])	Δlog(τ/KA) βArr2 vs cAMP (human GLP-1R [1])	Δlog(τ/KA) βArr2 vs pERK1/2 (human GLP-1R [1])	Emax (human GLP-1R [2])	Emax (human GLP-1R [3])	β-arrestin-2 recruitment, result in words (human GLP-1R [5])	Emax (human GLP-1R [7])	further results
CC[C@H](C)[C@H](NC(=O)[C@H](Cc1ccccc1)NC(=O)[C@H](CCC(=O)O)NC(=O)[C@H]1CNC[C@@H]1NC(=O)[C@H](C)NC(=O)[C@H](C)NC(=O)[C@H](CCC(N)=O)NC(=O)CNC(=O)[C@H](CCC(=O)O)NC(=O)[C@H](CC(C)C)NC(=O)[C@H](Cc1ccc(O)cc1)NC(=O)[C@H](CO)NC(=O)[C@H](CO)NC(=O)[C@@H](NC(=O)[C@H](CC(=O)O)NC(=O)[C@H](CO)NC(=O)[C@@H](NC(=O)[C@H](Cc1ccccc1)NC(=O)[C@@H](NC(=O)CNC(=O)[C@H](CCC(=O)O)NC(=O)[C@H](C)NC(=O)[C@@H](N)Cc1c[nH]cn1)[C@@H](C)O)[C@@H](C)O)C(C)C)C(=O)N[C@H]1CCC[C@@H]1C(=O)N[C@@H](Cc1c[nH]c2ccccc12)C(=O)N[C@@H](CC(C)C)C(=O)N[C@H](C(=O)N[C@H]1CNC[C@@H]1C(=O)NCC(=O)N[C@@H](CCCNC(=N)N)C(=O)NCC(N)=O)C(C)C [P1] (H-HAEGTFTSDVSSYLEGQAA[X2]EFI[X1]WLV[X2]GRG-NH2)	0.4 ± 0.1	0.5 ± 0.2	0.0 ± 0.2	0.5 ± 0.2	−0.1 ± 0.3	89 ± 8%	112 ± 8%	–	–	Δlog(τ/KA) βArr1 vs Ca2+ (human GLP-1R [1]): −0.1 ± 0.2; Δlog(τ/KA) βArr1 vs cAMP (human GLP-1R [1]): 0.4 ± 0.1; Δlog(τ/KA) βArr2 vs Ca2+ (human GLP-1R [1]): −0.2 ± 0.2; Emax (human GLP-1R [4]): 85 ± 7%; Emax (human GLP-1R [5]): 108 ± 5%
CC[C@H](C)[C@H](NC(=O)[C@H](Cc1ccccc1)NC(=O)[C@H](CCC(=O)O)NC(=O)[C@H]1CNC[C@@H]1NC(=O)[C@H](C)NC(=O)[C@H](C)NC(=O)[C@H](CCC(N)=O)NC(=O)[C@H]1CCC[C@@H]1NC(=O)[C@H](CCC(=O)O)NC(=O)[C@H](CC(C)C)NC(=O)[C@H](Cc1ccc(O)cc1)NC(=O)[C@H]1CCC[C@@H]1NC(=O)[C@H](CO)NC(=O)[C@@H](NC(=O)[C@H](CC(=O)O)NC(=O)[C@H](CO)NC(=O)[C@@H](NC(=O)[C@H](Cc1ccccc1)NC(=O)[C@@H](NC(=O)CNC(=O)[C@H](CCC(=O)O)NC(=O)[C@H](C)NC(=O)[C@@H](N)Cc1c[nH]cn1)[C@@H](C)O)[C@@H](C)O)C(C)C)C(=O)N[C@H]1CCC[C@@H]1C(=O)N[C@@H](Cc1c[nH]c2ccccc12)C(=O)N[C@@H](CC(C)C)C(=O)N[C@H](C(=O)N[C@H]1CNC[C@@H]1C(=O)NCC(=O)N[C@@H](CCCNC(=N)N)C(=O)NCC(N)=O)C(C)C [P3]	–	–	−0.1 ± 0.3	0.5 ± 0.3	−0.6 ± 0.2	–	–	–	–	–
CC[C@H](C)[C@H](NC(=O)[C@H](Cc1ccccc1)NC(=O)[C@H](CCC(=O)O)NC(=O)[C@H]1CNC[C@@H]1NC(=O)[C@H](C)NC(=O)[C@H](C)NC(=O)[C@H](CCC(N)=O)NC(=O)[C@H]1CCC[C@@H]1NC(=O)[C@H](CCC(=O)O)NC(=O)[C@H](CC(C)C)NC(=O)[C@H](Cc1ccc(O)cc1)NC(=O)[C@H]1CCC[C@@H]1NC(=O)[C@H](CO)NC(=O)C(C)(C)NC(=O)[C@H](CC(=O)O)NC(=O)[C@H](CO)NC(=O)[C@@H](NC(=O)[C@H](Cc1ccccc1)NC(=O)[C@@H](NC(=O)CNC(=O)[C@H](CCC(=O)O)NC(=O)C(C)(C)NC(=O)[C@@H](N)Cc1c[nH]cn1)[C@@H](C)O)[C@@H](C)O)C(=O)N[C@H]1CCC[C@@H]1C(=O)N[C@@H](Cc1c[nH]c2ccccc12)C(=O)N[C@@H](CC(C)C)C(=O)N[C@H](C(=O)N[C@H]1CNC[C@@H]1C(=O)NCC(=O)N[C@@H](CCCNC(=N)N)C(=O)NCC(N)=O)C(C)C [P4] (H-H[Aib]EGTFTSD[Aib]S[X1]YLE[X1]QAA[X2]EFI[X1]WLV[X2]GRG-NH2)	−0.2 ± 0.2	–	–	–	–	90 ± 40%	81 ± 8%	weak β-arrestin-2 responses; also recorded: no measurable signal	97 ± 7%	further reduction in affinity relative to other α/β-peptides in this set (human GLP-1R [6]): 10 fold; β-arrestin-1 recruitment, result in words (human GLP-1R [4]; FlpInCHO BRET): no measurable signal
CC[C@H](C)[C@H](NC(=O)[C@H](Cc1ccccc1)NC(=O)[C@H](CCC(=O)O)NC(=O)[C@H](CCCCN)NC(=O)[C@H](C)NC(=O)[C@H](C)NC(=O)[C@H](CCC(N)=O)NC(=O)CNC(=O)[C@H](CCC(=O)O)NC(=O)[C@H](CC(C)C)NC(=O)[C@H](Cc1ccc(O)cc1)NC(=O)[C@H](CO)NC(=O)[C@H](CO)NC(=O)C(C)(C)NC(=O)[C@H](CC(=O)O)NC(=O)[C@H](CO)NC(=O)[C@@H](NC(=O)[C@H](Cc1ccccc1)NC(=O)[C@@H](NC(=O)CNC(=O)[C@H](CCC(=O)O)NC(=O)C(C)(C)NC(=O)[C@@H](N)Cc1c[nH]cn1)[C@@H](C)O)[C@@H](C)O)C(=O)N[C@@H](C)C(=O)N[C@@H](Cc1c[nH]c2ccccc12)C(=O)N[C@@H](CC(C)C)C(=O)N[C@H](C(=O)N[C@@H](CCCCN)C(=O)NCC(=O)N[C@@H](CCCNC(=N)N)C(=O)NCC(N)=O)C(C)C [P6]	−0.1 ± 0.2	0.1 ± 0.2	0.5 ± 0.3	−0.1 ± 0.2	−0.3 ± 0.2	78 ± 5%	80 ± 7%	–	–	Δlog(τ/KA) βArr1 vs cAMP (human GLP-1R [1]): 0.4 ± 0.1; Δlog(τ/KA) βArr2 vs Ca2+ (human GLP-1R [1]): 0.0 ± 0.2; Emax (human GLP-1R [4]): 72 ± 4%; Emax (human GLP-1R [5]): 82 ± 5%
CC[C@H](C)[C@H](NC(=O)[C@H](Cc1ccccc1)NC(=O)[C@H](CCC(=O)O)NC(=O)[C@H]1CNC[C@@H]1NC(=O)[C@H](C)NC(=O)[C@H](C)NC(=O)[C@H](CCC(N)=O)NC(=O)[C@H]1CCC[C@@H]1NC(=O)[C@H](CCC(=O)O)NC(=O)[C@H](CC(C)C)NC(=O)[C@H](Cc1ccc(O)cc1)NC(=O)[C@H]1CCC[C@@H]1NC(=O)[C@H](CO)NC(=O)[C@@H](NC(=O)[C@H](CC(=O)O)NC(=O)[C@H](CO)NC(=O)[C@@H](NC(=O)[C@H](Cc1ccccc1)NC(=O)[C@@H](NC(=O)CNC(=O)[C@H](CCC(=O)O)NC(=O)[C@H](C)NC(=O)[C@@H](N)Cc1c[nH]cn1)[C@@H](C)O)[C@@H](C)O)C(C)C)C(=O)N[C@@H](C)C(=O)N[C@@H](Cc1c[nH]c2ccccc12)C(=O)N[C@@H](CC(C)C)C(=O)N[C@H](C(=O)N[C@@H](CCCCN)C(=O)NCC(=O)N[C@@H](CCCNC(=N)N)C(=O)NCC(N)=O)C(C)C [P8] (H-HAEGTFTSDVS[X1]YLE[X1]QAA[X2]EFIAWLVKGRG-NH2)	–	0.7 ± 0.3	0.0 ± 0.3	–	–	–	80 ± 8%	weak β-arrestin-2 responses	83 ± 5%	reduction in affinity relative to GLP-1 (human GLP-1R [6]): ~ 10 fold
CC[C@H](C)[C@H](NC(=O)[C@H](Cc1ccccc1)NC(=O)[C@H](CCC(=O)O)NC(=O)[C@H]1CNC[C@@H]1NC(=O)[C@H](C)NC(=O)[C@H](C)NC(=O)[C@H](CCC(N)=O)NC(=O)[C@H]1CCC[C@@H]1NC(=O)[C@H](CCC(=O)O)NC(=O)[C@H](CC(C)C)NC(=O)[C@H](Cc1ccc(O)cc1)NC(=O)[C@H]1CCC[C@@H]1NC(=O)[C@H](CO)NC(=O)[C@@H](NC(=O)[C@H](CC(=O)O)NC(=O)[C@H](CO)NC(=O)[C@@H](NC(=O)[C@H](Cc1ccccc1)NC(=O)[C@@H](NC(=O)CNC(=O)[C@H](CCC(=O)O)NC(=O)[C@H](C)NC(=O)[C@@H](N)Cc1c[nH]cn1)[C@@H](C)O)[C@@H](C)O)C(C)C)C(=O)N[C@H]1CCC[C@@H]1C(=O)N[C@@H](Cc1c[nH]c2ccccc12)C(=O)N[C@@H](CC(C)C)C(=O)N[C@H](C(=O)N[C@@H](CCCCN)C(=O)NCC(=O)N[C@@H](CCCNC(=N)N)C(=O)NCC(N)=O)C(C)C [P9] (H-HAEGTFTSDVS[X1]YLE[X1]QAA[X2]EFI[X1]WLVKGRG-NH2)	–	–	−0.1 ± 0.5	–	–	–	73 ± 9%	weak β-arrestin-2 responses	107 ± 5%	calcium mobilization, result in words (human GLP-1R [2]; FlpIn CHO human GLP-1R): essentially abolished calcium mobilization; reduction in affinity relative to GLP-1 (human GLP-1R [6]): ~ 10 fold
exendin-4	–	–	–	–	–	–	–	–	–	bias ERK1/2 phosphorylation over cAMP accumulation, in words (human GLP-1R [8]): does not exhibit bias toward ERK1/2 phosphorylation
oxyntomodulin (HSQGTFTSDYSKYLDSRRAQDFVQWLMNTKRNRNNIA; Oxyntomodulin; UniProt P01275 53-89, looked up)	–	–	–	–	–	–	–	–	–	bias ERK1/2 phosphorylation over cAMP accumulation, in words (human GLP-1R [8]): biases the GLP-1R toward ERK1/2 phosphorylation over cAMP accumulation
